Where a name gives a salt, the structure may show the parent alone.
Tests used:
[1] = Redox potential of the mediator at GC electrode; assay type: physicochemical; details: Ag/AgCl ref.; in mV (unit assumed)
Description: (§1) Data in the table are obtained using the same procedure as in Example 1.

Lactate oxidase = molecular target: T1, Lactate oxidase (Aerococcus viridans, UniProt Q44467); test: Lactate assay with enzyme-graphite pasta electrode and mediator; assay type: biochemical; details: lactate system; at 100 mV vs. Ag/AgCl reference electrode
T1 construct: purchased Sigma
T1 sequence (Q44467 1-374): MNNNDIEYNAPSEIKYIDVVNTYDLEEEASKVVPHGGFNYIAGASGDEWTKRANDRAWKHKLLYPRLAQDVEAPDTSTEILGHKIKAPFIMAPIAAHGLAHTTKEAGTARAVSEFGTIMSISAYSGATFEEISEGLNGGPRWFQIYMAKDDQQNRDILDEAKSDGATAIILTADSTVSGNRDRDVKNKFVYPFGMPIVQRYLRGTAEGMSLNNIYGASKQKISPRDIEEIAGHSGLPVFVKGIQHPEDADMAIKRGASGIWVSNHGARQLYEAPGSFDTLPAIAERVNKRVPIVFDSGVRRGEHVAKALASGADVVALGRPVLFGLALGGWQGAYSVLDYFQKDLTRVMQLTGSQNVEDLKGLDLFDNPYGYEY
Procedure: Lactate oxidase and alcohol oxidase were obtained from Sigma and the enzymes were used as in Example 1. The same mediators as in Example 4 were tested in the electrodes. The best response for the lactate system was obtained with Methylene green, which gave a current density at 4 µA/cm^2/mM at 100 mV vs. Ag/AgCl reference electrode. For the alcohol system ethanol was used as enzyme substrate. The current density was much lower than for the lactate system and none of the tested mediators worked optimally. Other mediators sucessfully tested with glucose oxidase are expected to give higher current densitites due to differences in hydrophobicity and hydrophillicity.

[2] = molecular target: T2, Glucose oxidase (GOD) (E.C.1.1.3.4.) (Aspergillus niger, UniProt P13006); test: Cyclic voltammetry of GOD-graphite/paraffin pasta electrode containing the mediator; assay type: biochemical; details: Ag/AgCl ref.
T2 sequence (P13006 17-605, species assumed): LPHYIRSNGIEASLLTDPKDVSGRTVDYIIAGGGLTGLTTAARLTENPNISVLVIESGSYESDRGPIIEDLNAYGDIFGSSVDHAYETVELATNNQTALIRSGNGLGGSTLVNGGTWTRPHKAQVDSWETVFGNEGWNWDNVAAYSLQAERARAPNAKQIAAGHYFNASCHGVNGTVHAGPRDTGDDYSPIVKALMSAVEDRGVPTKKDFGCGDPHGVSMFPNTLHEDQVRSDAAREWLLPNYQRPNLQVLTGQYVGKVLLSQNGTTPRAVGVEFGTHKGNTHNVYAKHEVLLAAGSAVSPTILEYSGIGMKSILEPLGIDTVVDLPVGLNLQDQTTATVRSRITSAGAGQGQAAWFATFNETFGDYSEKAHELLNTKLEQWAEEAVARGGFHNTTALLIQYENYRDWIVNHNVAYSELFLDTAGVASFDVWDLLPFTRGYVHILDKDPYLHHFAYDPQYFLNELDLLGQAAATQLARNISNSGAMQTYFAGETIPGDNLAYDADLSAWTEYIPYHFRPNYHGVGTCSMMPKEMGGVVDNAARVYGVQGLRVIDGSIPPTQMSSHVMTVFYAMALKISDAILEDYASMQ
Procedure: • 1) A paste containing GOD-immobilized graphite, paraffin and mediator is prepared. If the mediator has a big solubility in paraffin then 10 mg of mediator is used per ml of paraffin. If the mediator has a little solubility in paraffin then 50 mg of crystals are added per ml of paraffin in order to obtain a homogeneous mixture before graphite is added. The paste obtained is filled into sticks. • 2) The activity of the paste is determined in a cyclic voltametri equipment where the current is measured as a function of the potential (CV sweep). Five concentrations of glucose are measured, i.e., 0, 5, 10, 15 and 20 mM. Based upon the results obtained, the following is evaluated: • a) whether the mediator can be oxidized and reduced by the graphite electrode, • b) whether the mediator can be reduced of GOD, • c) the optimal potential for the electorde to be used, • d) whether a lineary response as a function of the concentration of glucose can be obtained using the concentration of mediator in question, • e) whether the concentration of the mediator can be optimized. • 3) The response as a function of time at the optimal potential is to be measured. The time interval within which the response represents a stable response for the concentration of glucose is to be evaluated. • 4) The stability of the mediator in the paste question is determined.
(§2) Glucose oxidase (GOD) (E.C.1.1.3.4.) was immobilized on graphite particles by the following procedure: 10 g of graphite was oxidized in air at 100°C for 24 hours. The surface oxidized graphite particles were activated with 500 mg of 1-cyclohexyl-3-(2-morpholinoethyl)carbodiimide metho-p-toluenesulfonate in 100 ml of 0.1 M acetate buffer (pH 4.76) for 2 hours, then washed with distilled water until an approximately neutral pH value and dried. The activated graphite was mixed with 30 ml of 0.01 phosphate buffer (pH 7.3) containing 80,000 IU GOD and 4% glutaraldehyde for 16 hours at 4°C, dried and sieved through a 48 mesh to obtain uniform particles.
(§3) 1 g of paraffin oil containing 5% Methylene green (4-nitro-3,7-bis(dimethylamino)phenothiazine) was mixed carefully with 2 g of GOD modified graphite to a uniform pasta.
(§4) The pasta was filled into a plastic rod in which it was possible to cut a thin cross-sectional slice to introduce a new well-defined electrode area. Before each measurement, the electrode surface was renewed. The working electrode area used was 3 mm^2.
In the study of the working electrode, an Ag auxiliary electrode and an Ag/AgCl reference electrode was used. In a cyclic voltammogram, a catalytic current from the reoxidation of the mediator was observed beginning at -50 mV and being stable between 50 and 400 mV. The current was proportional to the concentration of glucose used.
as §1

[3] = Stability test of pasta rods with selected mediators stored at different temperatures; assay type: physicochemical; design: unit not given here
Procedure: The stability of a paste with a certain mediator can be determined using the following method:
The mediator is dissolved or mixed with paraffin and, thereafter, the enzyme coupled to graphite is added. The mixture is homogenized giving a paste. This paste is filled into electrode holders of plast giving so-called sticks. These sticks are tested using 0 and 10 mM glucose standards in order to characterize the activity of these sticks in relation to glucose. Thereafter, the paste containing sticks are stored at a constant temperature, for example, 4, 20, 35 and 54°C. After a certain period of time, for example 1 month, the sticks are tested using the 0 and 10 mM glucose standards and the activities measured are compared with the activity measured at originally.
Data are obtained using the same basis procedure as in Example 1. Rods with selected mediators were stored at different temperature to accelerate processes which could give new analytical performance.

[4] = molecular target: T2, Glucose oxidase (GOD) (E.C.1.1.3.4.); test: Chronoamperometry of GOD-graphite/paraffin pasta electrode containing the mediator (glucose measurement); assay type: biochemical; details: for Working potential: Ag/AgCl ref.; for SD% of 100 measurement / Signal to noice ration: at 7mM glucose
Procedure: as §2, §3, §4
Chronoamperometry was preformed at 100 mV using the integrated current from 30 to 60 seconds after applying the potential. A linearity up to 40 mM glucose was obtained. The current was 500 nA/(sec*mM). The signal was not affected by the oxygen concentration in the solution. Reference pasta without Methylene green was not affected by different glucose concentrations.
as §1

SMILES	Redoxpotential at GCElectrode [1]	Catalytic interval beginning at [2] [mV]	activity of rod in stability test ([3]; 4°C, listed as a, Time 0)	activity of rod in stability test ([3]; 4°C, listed as b, Time 0)	activity of rod in stability test ([3]; 20°C, listed as a, Time 0)	activity of rod in stability test ([3]; 20°C, listed as b, Time 0)	activity of rod in stability test ([3]; 35°C, listed as a, Time 0)	activity of rod in stability test ([3]; 35°C, listed as b, Time 0)	activity of rod in stability test ([3]; 54°C, listed as a, Time 0)	activity of rod in stability test ([3]; 54°C, listed as b, Time 0)	Working potential [4]	SD% of 100 measurement [4] [%]	Signal to noice ration [4]	Linearity ([4]; glucose) [mM]	activity of rod in stability test ([3]; 4°C, listed as a, Time 72)	activity of rod in stability test ([3]; 4°C, listed as b, Time 72)	activity of rod in stability test ([3]; 20°C, listed as a, Time 72)	activity of rod in stability test ([3]; 20°C, listed as b, Time 72)	activity of rod in stability test ([3]; 35°C, listed as a, Time 72)	activity of rod in stability test ([3]; 35°C, listed as b, Time 72)	other results
CN(C)c1ccc2c(c1)Sc1c(ccc(N(C)C)c1[N+](=O)[O-])N2 [MG, 4-nitro-3,7-bis(dimethylamino)phenothiazine]	-149	-50	13.7	10.0	14.9	12.5	12.1	13.3	15.8	12.8	100	7.5	22.5	40	–	–	–	–	–	–	current density (Lactate oxidase): 4 µA/cm^2/mM; activity of rod in stability test ([3]; 4°C, listed as a, Time 75): 13.2; activity of rod in stability test ([3]; 4°C, listed as b, Time 75): 14.3; activity of rod in stability test ([3]; 20°C, listed as a, Time 75): 14.3; activity of rod in stability test ([3]; 20°C, listed as b, Time 75): 15.4; activity of rod in stability test ([3]; 35°C, listed as a, Time 75): 11.2; activity of rod in stability test ([3]; 35°C, listed as b, Time 75): 12.2; activity of rod in stability test ([3]; 54°C, listed as a, Time 75): 10.4; activity of rod in stability test ([3]; 54°C, listed as b, Time 75): 12.6; signal affected by the oxygen concentration in the solution ([4]; at 100 mV): not affected; current ([4]; at 100 mV, integrated current from 30 to 60 seconds after applying the potential): 500 nA/(sec*mM); Linearity in mM ([4]; glucose, listed as Methylene green): up to 40 mM
c1cc(N2CCOCC2)ccc1N1CCCCC1 [MPP, 1-morpholino-4-piperidinobenzene]	166	20	11.7	9.2	10.0	7.2	7.0	9.0	12.5	11.3	100	4.0	10	20	–	–	–	–	–	–	activity of rod in stability test ([3]; 4°C, listed as a, Time 70): 8.8; activity of rod in stability test ([3]; 4°C, listed as b, Time 70): 10.5; activity of rod in stability test ([3]; 20°C, listed as a, Time 70): 11.9; activity of rod in stability test ([3]; 20°C, listed as b, Time 70): 9.3; activity of rod in stability test ([3]; 35°C, listed as a, Time 70): 9.0; activity of rod in stability test ([3]; 35°C, listed as b, Time 70): 9.5; activity of rod in stability test ([3]; 54°C, listed as a, Time 70): 4.1; activity of rod in stability test ([3]; 54°C, listed as b, Time 70): 4.7
C[N+](C)=c1ccc2nc3c(ccc4ccccc43)oc-2c1 [MB, 7-dimethylamino-1,2-benzophenoxazinium salts]	-175	-50	–	–	–	–	–	–	–	–	100	6.5	4.8	40	–	–	–	–	–	–	–
c1cc(N2CCCCC2)ccc1N1CCCCC1 [BPP, 1,4-dipiperidinobenzene]	141	0	12.3	11.1	10.0	10.5	9.1	10.6	11.1	10.3	150	3.5	4.7	20	–	–	–	–	–	–	activity of rod in stability test ([3]; 4°C, listed as a, Time 78): 12.4; activity of rod in stability test ([3]; 4°C, listed as b, Time 78): 13.7; activity of rod in stability test ([3]; 20°C, listed as a, Time 78): 11.0; activity of rod in stability test ([3]; 20°C, listed as b, Time 78): 11.1; activity of rod in stability test ([3]; 35°C, listed as a, Time 78): 8.7; activity of rod in stability test ([3]; 35°C, listed as b, Time 78): 10.4; activity of rod in stability test ([3]; 54°C, listed as a, Time 78): 6.7; activity of rod in stability test ([3]; 54°C, listed as b, Time 78): 5.6
CN(C)c1ccc(N2CCOCC2)cc1 [MDMP, 1-dimethylamino-4-morpholinobenzene]	124	-20	17.2	16.2	16.4	16.0	15.4	13.4	17.4	14.4	100	4.5	8.3	20	16.9	18.1	17.4	15.4	15.7	14.5	activity of rod in stability test ([3]; 54°C, listed as a, Time 72): 6.9; activity of rod in stability test ([3]; 54°C, listed as b, Time 72): 8.5
c1cc(N2CCOCC2)ccc1N1CCOCC1 [BMP, 1,4-dimorpholinobenzene]	246	50	20.2	21.3	18.5	20.5	20.0	16.7	18.4	20.5	200	6.5	5.6	20	21.2	19.3	21.4	23.3	18.0	20.3	activity of rod in stability test ([3]; 54°C, listed as a, Time 72): 15.0; activity of rod in stability test ([3]; 54°C, listed as b, Time 72): 14.6

Reference: patent publication EP0552223B1, “USE OF BENZENE DERIVATIVES AS CHARGE TRANSFER MEDIATORS” (NOVO NORDISK A/S, priority 1990, dated 1992)
